{"source": "patent US20250127162A1", "about": "“METHODS AND COMPOSITIONS FOR CONTROLLING PESTS IN RICE” (Globachem NV, priority 2022, published 2025)", "tested_on": "Chilo suppressalis", "assay": "Rice field trials, control of Chilo suppressalis (Example 1, Trials 1-2, Spain)", "type": "in vivo", "details": "applications AB", "protocol": "All applications were made with an EC formulation containing 650 g/L of pelargonic acid (e.g., 685 g/L of 95% purity pelargonic acid), an anionic emulsifier and a branched fatty acid ester solvent.\nTrials 1˜4 assessing the use of pelargonic acid for controlling Chilo suppressalis in rice were conducted in Spain and Thailand.\nApplication A was made to the crops at the beginning of infestations; for these trials, Stage BBCH 59; Application B was made 14 days after Application A.\nTrial 1 was conducted in Spain using a water volume of 300 L/ha of water per application unless otherwise indicated. Pest Incidence/Number of Insects (PESINC) and Pest Severity (PESSEV) as a Percent of Untreated Check (% UNCK) as well as Phytotoxicity were assessed at various treatment evaluation intervals.\nTrial 2 was conducted in Spain using a water volume of 300 L/ha of water per application unless otherwise indicated. Pest Incidence/Number of Insects (PESINC) and Pest Severity (PESSEV) as a Percent of Untreated Check (% UNCK) as well as Phytotoxicity were assessed at various treatment evaluation intervals.", "key": {"[1]": {"details": "Trial 1, 14 DAB, water volume 150 L/ha"}, "[2]": {"details": "Trial 1, 14 DAB, water volume 300 L/ha, rate in treatment name"}, "[3]": {"details": "Trial 1, 27 DAB, water volume 150 L/ha"}, "[4]": {"details": "Trial 1, 27 DAB, water volume 300 L/ha, rate in treatment name, listed as PA 585 g/ha"}, "[5]": {"details": "Trial 1, 27 DAB, water volume 300 L/ha, rate in treatment name, listed as PA 975 g/ha"}, "[6]": {"details": "Trial 1, 27 DAB, water volume 300 L/ha, rate in treatment name, listed as PA 1300 g/ha"}, "[7]": {"details": "Trial 1, 27 DAB, water volume 300 L/ha, rate in treatment name, listed as PA 2600 g/ha"}, "[8]": {"details": "Trial 1, 40 DAB, water volume 150 L/ha"}, "[9]": {"details": "Trial 1, 40 DAB, water volume 300 L/ha, rate in treatment name, listed as PA 585 g/ha"}, "[10]": {"details": "Trial 1, 40 DAB, water volume 300 L/ha, rate in treatment name, listed as PA 975 g/ha"}, "[11]": {"details": "Trial 1, 40 DAB, water volume 300 L/ha, rate in treatment name, listed as PA 1300 g/ha"}, "[12]": {"details": "Trial 1, 40 DAB, water volume 300 L/ha, rate in treatment name, listed as PA 2600 g/ha"}}, "data": [{"smiles": "CCCCCCCCC(=O)O", "note": "[PA 650 g/ha, pelargonic acid]", "values": [{"measurement": "PESINC (Pest Incidence/Number of Insects) % UNCK (% efficacy)", "setting": "[1]", "value": 75, "unit": "% UNCK"}, {"measurement": "PESSEV (Pest Severity) % UNCK", "setting": "[1]", "value": 75, "unit": "% UNCK"}, {"measurement": "PESINC (Pest Incidence/Number of Insects) % UNCK (% efficacy)", "setting": "[2]", "value": 75, "unit": "% UNCK"}, {"measurement": "PESSEV (Pest Severity) % UNCK", "setting": "[2]", "value": 75, "unit": "% UNCK"}, {"measurement": "PESINC (Pest Incidence/Number of Insects) % UNCK (% efficacy)", "setting": "[3]", "value": 42.08, "unit": "% UNCK"}, {"measurement": "PESSEV (Pest Severity) % UNCK", "setting": "[3]", "value": 42.08, "unit": "% UNCK"}, {"measurement": "PESINC (Pest Incidence/Number of Insects) % UNCK (% efficacy)", "setting": "[4]", "value": 30.83, "unit": "% UNCK"}, {"measurement": "PESSEV (Pest Severity) % UNCK", "setting": "[4]", "value": 30.83, "unit": "% UNCK"}, {"measurement": "PESINC (Pest Incidence/Number of Insects) % UNCK (% efficacy)", "setting": "[5]", "value": 42.08, "unit": "% UNCK"}, {"measurement": "PESSEV (Pest Severity) % UNCK", "setting": "[5]", "value": 42.08, "unit": "% UNCK"}, {"measurement": "PESINC (Pest Incidence/Number of Insects) % UNCK (% efficacy)", "setting": "[6]", "value": 46.25, "unit": "% UNCK"}, {"measurement": "PESSEV (Pest Severity) % UNCK", "setting": "[6]", "value": 50, "unit": "% UNCK"}, {"measurement": "PESINC (Pest Incidence/Number of Insects) % UNCK (% efficacy)", "setting": "[7]", "value": 59.58, "unit": "% UNCK"}, {"measurement": "PESSEV (Pest Severity) % UNCK", "setting": "[7]", "value": 59.58, "unit": "% UNCK"}, {"measurement": "PESINC (Pest Incidence/Number of Insects) % UNCK (% efficacy)", "setting": "[8]", "value": 43.75, "unit": "% UNCK"}, {"measurement": "PESSEV (Pest Severity) % UNCK", "setting": "[8]", "value": 43.75, "unit": "% UNCK"}, {"measurement": "PESINC (Pest Incidence/Number of Insects) % UNCK (% efficacy)", "setting": "[9]", "value": 27.71, "unit": "% UNCK"}, {"measurement": "PESSEV (Pest Severity) % UNCK", "setting": "[9]", "value": 29.21, "unit": "% UNCK"}, {"measurement": "PESINC (Pest Incidence/Number of Insects) % UNCK (% efficacy)", "setting": "[10]", "value": 46.88, "unit": "% UNCK"}, {"measurement": "PESSEV (Pest Severity) % UNCK", "setting": "[10]", "value": 46.88, "unit": "% UNCK"}, {"measurement": "PESINC (Pest Incidence/Number of Insects) % UNCK (% efficacy)", "setting": "[11]", "value": 47.5, "unit": "% UNCK"}, {"measurement": "PESSEV (Pest Severity) % UNCK", "setting": "[11]", "value": 47.5, "unit": "% UNCK"}, {"measurement": "PESINC (Pest Incidence/Number of Insects) % UNCK (% efficacy)", "setting": "[12]", "value": 63.13, "unit": "% UNCK"}, {"measurement": "PESSEV (Pest Severity) % UNCK", "setting": "[12]", "value": 63.13, "unit": "% UNCK"}, {"measurement": "PESSEV (Pest Severity) % UNCK", "setting": "Trial 2, 14 DAB, water volume 150 L/ha", "value": 100, "unit": "% UNCK"}, {"measurement": "PESSEV (Pest Severity) % UNCK", "setting": "Trial 2, 14 DAB, water volume 300 L/ha, rate in treatment name", "value": 100, "unit": "% UNCK"}, {"measurement": "PESINC (Pest Incidence/Number of Insects) % UNCK", "setting": "Trial 2, 15 DAB, water volume 150 L/ha", "value": 100, "unit": "% UNCK"}, {"measurement": "PESINC (Pest Incidence/Number of Insects) % UNCK", "setting": "Trial 2, 15 DAB, water volume 300 L/ha, rate in treatment name", "value": 100, "unit": "% UNCK"}, {"measurement": "PESSEV (Pest Severity) % UNCK", "setting": "Trial 2, 27 DAB, water volume 150 L/ha", "value": 45.31, "unit": "% UNCK"}, {"measurement": "PESSEV (Pest Severity) % UNCK", "setting": "Trial 2, 27 DAB, water volume 300 L/ha, rate in treatment name, listed as PA 585 g/ha", "value": 55.21, "unit": "% UNCK"}, {"measurement": "PESSEV (Pest Severity) % UNCK", "setting": "Trial 2, 27 DAB, water volume 300 L/ha, rate in treatment name, listed as PA 975 g/ha", "value": 57.29, "unit": "% UNCK"}, {"measurement": "PESSEV (Pest Severity) % UNCK", "setting": "Trial 2, 27 DAB, water volume 300 L/ha, rate in treatment name, listed as PA 1300 g/ha", "value": 69.27, "unit": "% UNCK"}, {"measurement": "PESSEV (Pest Severity) % UNCK", "setting": "Trial 2, 27 DAB, water volume 300 L/ha, rate in treatment name, listed as PA 2600 g/ha", "value": 77.6, "unit": "% UNCK"}, {"measurement": "PESINC (Pest Incidence/Number of Insects) % UNCK", "setting": "Trial 2, 28 DAB, water volume 150 L/ha", "value": 40, "unit": "% UNCK"}, {"measurement": "PESINC (Pest Incidence/Number of Insects) % UNCK", "setting": "Trial 2, 28 DAB, water volume 300 L/ha, rate in treatment name, listed as PA 585 g/ha", "value": 45, "unit": "% UNCK"}, {"measurement": "PESINC (Pest Incidence/Number of Insects) % UNCK", "setting": "Trial 2, 28 DAB, water volume 300 L/ha, rate in treatment name, listed as PA 975 g/ha", "value": 45, "unit": "% UNCK"}, {"measurement": "PESINC (Pest Incidence/Number of Insects) % UNCK", "setting": "Trial 2, 28 DAB, water volume 300 L/ha, rate in treatment name, listed as PA 1300 g/ha", "value": 57.5, "unit": "% UNCK"}, {"measurement": "PESINC (Pest Incidence/Number of Insects) % UNCK", "setting": "Trial 2, 28 DAB, water volume 300 L/ha, rate in treatment name, listed as PA 2600 g/ha", "value": 74.17, "unit": "% UNCK"}, {"measurement": "PESSEV (Pest Severity) % UNCK", "setting": "Trial 2, 40 DAB, water volume 150 L/ha", "value": 57.29, "unit": "% UNCK"}, {"measurement": "PESSEV (Pest Severity) % UNCK", "setting": "Trial 2, 40 DAB, water volume 300 L/ha, rate in treatment name, listed as PA 585 g/ha", "value": 62.5, "unit": "% UNCK"}, {"measurement": "PESSEV (Pest Severity) % UNCK", "setting": "Trial 2, 40 DAB, water volume 300 L/ha, rate in treatment name, listed as PA 975 g/ha", "value": 68.75, "unit": "% UNCK"}, {"measurement": "PESSEV (Pest Severity) % UNCK", "setting": "Trial 2, 40 DAB, water volume 300 L/ha, rate in treatment name, listed as PA 1300 g/ha", "value": 68.75, "unit": "% UNCK"}, {"measurement": "PESSEV (Pest Severity) % UNCK", "setting": "Trial 2, 40 DAB, water volume 300 L/ha, rate in treatment name, listed as PA 2600 g/ha", "value": 79.38, "unit": "% UNCK"}, {"measurement": "PESINC (Pest Incidence/Number of Insects) % UNCK", "setting": "Trial 2, 41 DAB, water volume 150 L/ha", "value": 39.29, "unit": "% UNCK"}, {"measurement": "PESINC (Pest Incidence/Number of Insects) % UNCK", "setting": "Trial 2, 41 DAB, water volume 300 L/ha, rate in treatment name, listed as PA 585 g/ha", "value": 52.86, "unit": "% UNCK"}, {"measurement": "PESINC (Pest Incidence/Number of Insects) % UNCK", "setting": "Trial 2, 41 DAB, water volume 300 L/ha, rate in treatment name, listed as PA 975 g/ha", "value": 52.86, "unit": "% UNCK"}]}]}
